Measurements as given in US12528814B2, “Bifunctional degraders of interleukin-1 receptor-associated kinases and therapeutic use thereof” (NURIX THERAPEUTICS, INC., priority 2020, dated 2026).
Where two headings read alike, the source gives them in different places.

Key:
IRAK4 [1] = target: T1, IRAK4 (Homo sapiens (Human), UniProt Q9NWZ3); assay: IRAK4 Biochemical HTRF Kinase Assay; conditions: read-out: IRAK4 HTRF biochemical: IC50
Outline: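 IC50 values derive from non-linear regression of sixteen concentrations in duplicate. Kinase reaction ran 90 min at ambient temperature after adding 5 μM STK-S1 substrate, 10 mM ATP and 10 mM MgCl2 (reaction-solution levels, pre-dilution to 10 μl); phospho-peptide detected by HTRF after 60 min.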
Target sequence in this assay (Q9NWZ3 whole entry, species assumed): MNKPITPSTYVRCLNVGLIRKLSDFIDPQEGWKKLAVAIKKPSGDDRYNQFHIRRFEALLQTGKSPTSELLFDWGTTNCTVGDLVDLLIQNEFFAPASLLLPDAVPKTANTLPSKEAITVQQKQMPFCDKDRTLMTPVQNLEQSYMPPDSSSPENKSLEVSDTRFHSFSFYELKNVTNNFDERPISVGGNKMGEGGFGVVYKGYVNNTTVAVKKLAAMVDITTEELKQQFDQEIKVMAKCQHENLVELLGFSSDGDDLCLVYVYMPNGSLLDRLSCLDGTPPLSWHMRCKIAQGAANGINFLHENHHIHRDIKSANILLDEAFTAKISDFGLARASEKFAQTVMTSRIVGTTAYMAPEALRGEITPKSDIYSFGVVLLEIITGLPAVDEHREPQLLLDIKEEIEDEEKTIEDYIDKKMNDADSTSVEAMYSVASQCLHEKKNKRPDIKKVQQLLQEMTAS

IRAK4 [2] = target: T1, IRAK4; assay: IRAK4 Degradation HiBiT Assay; conditions: HiBiT-tagged Jurkat cells, 4 hrs; for Dmax: Jurkat; for DC50: read-out: Cellular IRAK4 HiBiT: DC50
Target sequence in this assay (Q9NWZ3 whole entry): as the sequence (Q9NWZ3 whole entry, species assumed) above

[3] = read-out: Cellular IRAK4 HiBiT: Dmax, Table 5, multiple runs
[4] = read-out: Cellular IRAK4 HiBiT: Dmax, Table 4

Row | IC50 (IRAK4 [1]; Table 5, multiple runs) [nM] | Dmax (IRAK4 [2]; [3]) [%] | DC50 (IRAK4 [2]; Table 5, multiple runs) [nM] | IC50 (IRAK4 [1]; Table 4) [nM] | Dmax (IRAK4 [2]; [4]) [%] | DC50 (IRAK4 [2]; Table 4) [nM] | SMILES
1 | 0.3 | 62 | 192 | – | – | – | CNc1cc(-c2ccc3cc(C#N)cnn23)ncc1-c1nnc([C@H]2CC[C@H](N(C)CC3CCN(c4ccc(C(=O)N(C)C5CCC(=O)NC5=O)cc4)CC3)CC2)s1 (stereo partly drawn) [Example 189, 4-(4-((((1r,4r)-4-(5-(6-(3-cyanopyrrolo[1,2-b]pyridazin-7-yl)-4-(methylamino)pyridin-3-yl)-1,3,4-thiadiazol-2-yl)cyclohexyl)(methyl)amino)methyl)piperidin-1-yl)-N-(2,6-dioxopiperidin-3-yl)-N-methylbenzamide]
2 | 1 | 104 | 17.6 | – | – | – | CNc1cc(-c2ccc3cc(C#N)cnn23)ncc1-c1nnc(N2CCC(C(=O)N3CCN(Cc4ccc5c(c4)C(=O)N(C4CCC(=O)NC4=O)C5=O)CC3)CC2)s1 (stereo not drawn) [Example 157, 7-(5-(5-(4-(4-((2-(2,6-dioxopiperidin-3-yl)-1,3-dioxoisoindolin-5-yl)methyl)piperazine-1-carbonyl)piperidin-1-yl)-1,3,4-thiadiazol-2-yl)-4-(methylamino)pyridin-2-yl)pyrrolo[1,2-b]pyridazine-3-carbonitrile]
3 | 1.8 | 49 | 109 | – | – | – | CNc1cc(-c2ccc3cc(C#N)cnn23)ncc1-c1nnc(N2CCN(C3CCN(Cc4ccc(C(=O)NC5CCC(=O)NC5=O)cc4)CC3)CC2)s1 (stereo not drawn) [Example 145, 4-((4-(4-(5-(6-(3-cyanopyrrolo[1,2-b]pyridazin-7-yl)-4-(methylamino)pyridin-3-yl)-1,3,4-thiadiazol-2-yl)piperazin-1-yl)piperidin-1-yl)methyl)-N-(2,6-dioxopiperidin-3-yl)benzamide]
4 | 1 | 99 | 73.3 | – | – | – | CNc1cc(-c2ccc3cc(C#N)cnn23)ncc1-c1nnc(C23CCC(NC(=O)C4CN(C5CCN(c6ccc7c(c6)C(=O)N(C6CCC(=O)NC6=O)C7=O)CC5)C4)(CC2)CC3)s1 (stereo not drawn) [Example 103, N-(4-(5-(6-(3-cyanopyrrolo[1,2-b]pyridazin-7-yl)-4-(methylamino)pyridin-3-yl)-1,3,4-thiadiazol-2-yl)bicyclo[2.2.2]octan-1-yl)-1-(1-(2-(2,6-dioxopiperidin-3-yl)-1,3-dioxoisoindolin-5-yl)piperidin-4-yl)azetidine-3-carboxamide]
5 | 0.8 | 111 | 8.59 | – | – | – | CC(C)Nc1cc(-c2ccc3cc(C#N)cnn23)ncc1-c1nnc(N2CCN(C3CCN(C(=O)Cc4ccc5c(c4)CN(C4CCC(=O)NC4=O)C5=O)CC3)CC2)s1 (stereo not drawn) [Example 75, 7-(5-(5-(4-(1-(2-(2-(2,6-dioxopiperidin-3-yl)-1-oxoisoindolin-5-yl)acetyl)piperidin-4-yl)piperazin-1-yl)-1,3,4-thiadiazol-2-yl)-4-(isopropylamino)pyridin-2-yl)pyrrolo[1,2-b]pyridazine-3-carbonitrile]
6 | 4 | 119 | 691 | 4 | 119 | 691 | Cc1ncsc1-c1ccc(CNC(=O)[C@@H]2C[C@@H](O)CN2C(=O)[C@@H](NC(=O)C2(F)CC2)C(C)(C)C)c(OCCOCCOCCOCCOCCOCCC(=O)N2CCN(c3nnc(-c4cnc(-c5ccc6cc(C#N)cnn56)cc4NC(C)C)s3)CC2)c1 [Example 48, (2S,4R)—N-(2-((18-(4-(5-(6-(3-cyanopyrrolo[1,2-b]pyridazin-7-yl)-4-(isopropylamino)pyridin-3-yl)-1,3,4-thiadiazol-2-yl)piperazin-1-yl)-18-oxo-3,6,9,12,15-pentaoxaoctadecyl)oxy)-4-(4-methylthiazol-5-yl)benzyl)-1-((S)-2-(1-fluorocyclopropane-1-carboxamido)-3,3-dimethylbutanoyl)-4-hydroxypyrrolidine-2-carboxamide]
7 | 0.9 | 24 | 10.6 | – | – | – | CNc1cc(-c2ccc3cc(C#N)cnn23)ncc1-c1nnc([C@H]2CC[C@H](NC(=O)C3CCN(c4cccc5c4C(=O)N(C4CCC(=O)NC4=O)C5=O)CC3)CC2)s1 (stereo partly drawn) [Example 139, N-((1r,4r)-4-(5-(6-(3-cyanopyrrolo[1,2-b]pyridazin-7-yl)-4-(methylamino)pyridin-3-yl)-1,3,4-thiadiazol-2-yl)cyclohexyl)-1-(2-(2,6-dioxopiperidin-3-yl)-1,3-dioxoisoindolin-4-yl)piperidine-4-carboxamide]
8 | 1.5 | 117 | 52.9 | 2.79 | 115 | 77.6 | CNc1cc(-c2ccc3cc(C#N)cnn23)ncc1-c1nnc([C@H]2CC[C@H](NC(=O)CCC(=O)N[C@H](C(=O)N3C[C@H](O)C[C@H]3C(=O)N[C@@H](C)c3ccc(-c4scnc4C)cc3)C(C)(C)C)CC2)s1 [Example 56, N1-((1r,4S)-4-(5-(6-(3-cyanopyrrolo[1,2-b]pyridazin-7-yl)-4-(methylamino)pyridin-3-yl)-1,3,4-thiadiazol-2-yl)cyclohexyl)-N4—((S)-1-((2S,4R)-4-hydroxy-2-(((S)-1-(4-(4-methylthiazol-5-yl)phenyl)ethyl)carbamoyl)pyrrolidin-1-yl)-3,3-dimethyl-1-oxobutan-2-yl)succinamide]
9 | 0.9 | 111 | 63.1 | – | – | – | CNc1cc(-c2ccc3cc(C#N)cnn23)ncc1-c1nnc([C@H]2CC[C@@H](NC(=O)CN3CCN(c4ccc5c(c4)C(=O)N(C4CCC(=O)NC4=O)C5=O)CC3)CC2)s1 (stereo partly drawn) [Example 126, N-((1s,4s)-4-(5-(6-(3-cyanopyrrolo[1,2-b]pyridazin-7-yl)-4-(methylamino)pyridin-3-yl)-1,3,4-thiadiazol-2-yl)cyclohexyl)-2-(4-(2-(2,6-dioxopiperidin-3-yl)-1,3-dioxoisoindolin-5-yl)piperazin-1-yl)acetamide]
10 | 0.6 | 20 | 2.63 | – | – | – | CNc1cc(-c2ccc3cc(C#N)cnn23)ncc1-c1nnc([C@H]2CC[C@H](N(C)C(=O)Cc3ccc4c(c3)CN(C3CCC(=O)NC3=O)C4=O)CC2)s1 (stereo partly drawn) [Example 168, N-((1r,4r)-4-(5-(6-(3-cyanopyrrolo[1,2-b]pyridazin-7-yl)-4-(methylamino)pyridin-3-yl)-1,3,4-thiadiazol-2-yl)cyclohexyl)-2-(2-(2,6-dioxopiperidin-3-yl)-1-oxoisoindolin-5-yl)-N-methylacetamide]
11 | 0.5 | 105 | 14.8 | – | – | – | CNc1cc(-c2ccc3cc(C#N)cnn23)ncc1-c1nnc(N2CC3(CCN(C(=O)CN4CCN(c5ccc6c(c5)C(=O)N(C5CCC(=O)NC5=O)C6=O)CC4)CC3)C2)s1 (stereo not drawn) [Example 177, 7-(5-(5-(7-(2-(4-(2-(2,6-dioxopiperidin-3-yl)-1,3-dioxoisoindolin-5-yl)piperazin-1-yl)acetyl)-2,7-diazaspiro[3.5]nonan-2-yl)-1,3,4-thiadiazol-2-yl)-4-(methylamino)pyridin-2-yl)pyrrolo[1,2-b]pyridazine-3-carbonitrile]
12 | 0.8 | 108 | 9.74 | – | – | – | CNc1cc(-c2ccc3cc(C#N)cnn23)ncc1-c1nnc(N2CCC(NC(=O)CN3CCN(c4ccc5c(c4)C(=O)N(C4CCC(=O)NC4=O)C5=O)CC3)CC2)s1 (stereo not drawn) [Example 95, N-(1-(5-(6-(3-cyanopyrrolo[1,2-b]pyridazin-7-yl)-4-(methylamino)pyridin-3-yl)-1,3,4-thiadiazol-2-yl)piperidin-4-yl)-2-(4-(2-(2,6-dioxopiperidin-3-yl)-1,3-dioxoisoindolin-5-yl)piperazin-1-yl)acetamide]
13 | 0.6 | 41 | 6.94 | – | – | – | CNc1cc(-c2ccc3cc(C#N)cnn23)ncc1-c1nnc(N2CC3(CCN(C[C@@H]4CCN(c5ccc6c(c5)C(=O)N(C5CCC(=O)NC5=O)C6=O)C4)CC3)C2)s1 (stereo partly drawn) [Example 181, 7-(5-(5-(7-(((3S)-1-(2-(2,6-dioxopiperidin-3-yl)-1,3-dioxoisoindolin-5-yl)pyrrolidin-3-yl)methyl)-2,7-diazaspiro[3.5]nonan-2-yl)-1,3,4-thiadiazol-2-yl)-4-(methylamino)pyridin-2-yl)pyrrolo[1,2-b]pyridazine-3-carbonitrile]

Row | SMILES | IC50 (IRAK4 [1]; Table 5, multiple runs) [nM] | Dmax (IRAK4 [2]; [3]) [%] | DC50 (IRAK4 [2]; Table 5, multiple runs) [nM] | IC50 (IRAK4 [1]; Table 4) [nM] | Dmax (IRAK4 [2]; [4]) [%] | DC50 (IRAK4 [2]; Table 4) [nM]
14 | CNc1cc(-c2ccc3cc(C#N)cnn23)ncc1-c1nnc(N2CC3CCC(C2)N3C2CCN(C(=O)c3ccc4c(c3)C(=O)N(C3CCC(=O)NC3=O)C4)CC2)s1 (stereo not drawn) [Example 162, 7-(5-(5-(8-(1-(2-(2,6-dioxopiperidin-3-yl)-3-oxoisoindoline-5-carbonyl)piperidin-4-yl)-3,8-diazabicyclo[3.2.1]octan-3-yl)-1,3,4-thiadiazol-2-yl)-4-(methylamino)pyridin-2-yl)pyrrolo[1,2-b]pyridazine-3-carbonitrile] | 0.4 | 110 | 10.5 | – | – | –
15 | CN[C@@H](C)C(=O)N[C@H](C(=O)N1C[C@@H](NC(=O)CCCCC(=O)N2CCN(c3nnc(-c4cnc(-c5ccc6cc(C#N)cnn56)cc4NC(C)C)s3)CC2)C[C@H]1C(=O)N[C@@H]1CCCc2ccccc21)C1CCCCC1 [Example 51, (2S,4S)-4-(6-(4-(5-(6-(3-cyanopyrrolo[1,2-b]pyridazin-7-yl)-4-(isopropylamino)pyridin-3-yl)-1,3,4-thiadiazol-2-yl)piperazin-1-yl)-6-oxohexanamido)-1-((S)-2-cyclohexyl-2-((S)-2-(methylamino)propanamido)acetyl)-N—((R)-1,2,3,4-tetrahydronaphthalen-1-yl)pyrrolidine-2-carboxamide] | 2 | 47 | 502 | 2 | 48 | 638
